Assay results from ChEMBL document CHEMBL1142718, “Novel indolylindazolylmaleimides as inhibitors of protein kinase C-beta: synthesis, biological activity, and cardiovascular safety” (J Med Chem, 2005).

Assays:
[1] = target: Cyclin-dependent kinase 1 (Mus musculus, UniProt P11440); assay: Inhibition of Cyclin-dependent kinase 1 in P19 cells; format: cell-based
[2] = Inhibition of Protein Kinase A in P19 cells; format: cell-based, Mus musculus
[3] = target: Epidermal growth factor receptor (Mus musculus, UniProt Q01279); assay: Inhibition of Epidermal growth factor receptor in P19 cells; format: cell-based
[4] = target: Platelet-derived growth factor receptor (Mus musculus, UniProt P05622+P26618); assay: Inhibition of Platelet-derived growth factor receptor in P19 cells; format: cell-based
[5] = target: T1, Protein kinase C beta type (Homo sapiens, UniProt P05771); assay: Inhibition of human Protein kinase C beta 1 using [gamma-33P]-ATP
[6] = target: Protein kinase C delta type (Homo sapiens, UniProt Q05655); assay: Inhibition of Protein kinase C delta
Casein kinase 2 = Casein kinase 2 (Mus musculus, UniProt Q60737+P67871+O54833+Q8CH19); assay: Inhibition of Casein kinase 2 of P19 cells; format: cell-based
[7] = target: T1, Protein kinase C beta type; assay: Inhibition of IL-8 release by HEK293 cells expressing PKC-beta2; format: functional, cell-based
[8] = Inhibition of Vascular endothelial growth factor receptor in P19 cells; format: cell-based, Mus musculus
Insulin receptor = Insulin receptor (Mus musculus, UniProt P15208); assay: Inhibition of Insulin receptor kinase in P19 cells; format: cell-based
[9] = target: T2, Protein kinase C zeta type (Homo sapiens, UniProt Q05513); assay: Inhibition of Protein kinase C zeta
T2 sequence (Q05513 whole entry): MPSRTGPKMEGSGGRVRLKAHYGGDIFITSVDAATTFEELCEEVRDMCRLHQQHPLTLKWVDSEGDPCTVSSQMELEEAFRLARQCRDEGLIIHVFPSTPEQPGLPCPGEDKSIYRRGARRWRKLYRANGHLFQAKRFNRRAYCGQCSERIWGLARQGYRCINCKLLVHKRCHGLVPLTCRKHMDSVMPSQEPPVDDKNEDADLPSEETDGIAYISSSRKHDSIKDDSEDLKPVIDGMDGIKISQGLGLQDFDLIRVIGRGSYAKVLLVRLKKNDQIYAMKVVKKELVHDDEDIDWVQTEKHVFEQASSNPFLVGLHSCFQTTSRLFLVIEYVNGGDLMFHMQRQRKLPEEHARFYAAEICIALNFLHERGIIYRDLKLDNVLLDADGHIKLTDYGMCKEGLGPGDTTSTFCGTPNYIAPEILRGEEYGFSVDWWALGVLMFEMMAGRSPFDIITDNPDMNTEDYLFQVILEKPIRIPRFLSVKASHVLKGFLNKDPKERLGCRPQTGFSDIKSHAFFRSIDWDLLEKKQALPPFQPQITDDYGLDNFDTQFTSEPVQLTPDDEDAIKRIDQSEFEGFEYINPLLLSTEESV

[10] = target: Protein kinase C alpha type (Homo sapiens, UniProt P17252); assay: Inhibition of human Protein kinase C alpha using [gamma-33P]-ATP
[11] = Inhibition of Casein kinase 1 in P19 cells; format: cell-based, Mus musculus
[12] = target: Protein kinase C gamma type (Homo sapiens, UniProt P05129); assay: Inhibition of human Protein kinase C gamma using [gamma-33P]-ATP
[13] = target: Mitogen-activated protein kinase 1 (Mus musculus, UniProt P63085); format: cell-based, P19
Description: Inhibition of Mitogen-activated protein kinase/extracellular signal-regulated kinase 2 in P19 cells

[14] = Inhibition of Protein kinase C epsilon
[15] = Inhibition of Calcium/calmodulin-dependent protein kinase type II in P19 cells; format: cell-based, Mus musculus
[16] = target: T1, Protein kinase C beta type; assay: Inhibition of human Protein kinase C beta 2 using [gamma-33P]-ATP
[17] = target: Voltage-gated inwardly rectifying potassium channel KCNH2 (Homo sapiens, UniProt Q12809)
Description: Inhibition of [3H]astemizole binding to Potassium channel HERG

[18] = target: T3, Protein kinase C zeta type (Homo sapiens) (UniProt Q05513); assay: Inhibition of Protein kinase C zeta at 10 uM
T3 sequence (whole entry): T2 sequence (Q05513 whole entry)

Sequence of Mitogen-activated protein kinase 1 (P63085 whole entry): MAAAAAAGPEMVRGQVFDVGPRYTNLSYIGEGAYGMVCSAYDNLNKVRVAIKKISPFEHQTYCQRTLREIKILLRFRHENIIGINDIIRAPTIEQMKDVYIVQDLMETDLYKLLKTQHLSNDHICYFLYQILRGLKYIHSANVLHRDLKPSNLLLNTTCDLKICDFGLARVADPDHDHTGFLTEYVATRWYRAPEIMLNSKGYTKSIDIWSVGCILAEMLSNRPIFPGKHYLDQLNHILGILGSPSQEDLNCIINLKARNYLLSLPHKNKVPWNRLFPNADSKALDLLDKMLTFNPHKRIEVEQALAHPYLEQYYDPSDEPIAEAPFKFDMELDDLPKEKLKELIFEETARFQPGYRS
T1 sequence (P05771 whole entry): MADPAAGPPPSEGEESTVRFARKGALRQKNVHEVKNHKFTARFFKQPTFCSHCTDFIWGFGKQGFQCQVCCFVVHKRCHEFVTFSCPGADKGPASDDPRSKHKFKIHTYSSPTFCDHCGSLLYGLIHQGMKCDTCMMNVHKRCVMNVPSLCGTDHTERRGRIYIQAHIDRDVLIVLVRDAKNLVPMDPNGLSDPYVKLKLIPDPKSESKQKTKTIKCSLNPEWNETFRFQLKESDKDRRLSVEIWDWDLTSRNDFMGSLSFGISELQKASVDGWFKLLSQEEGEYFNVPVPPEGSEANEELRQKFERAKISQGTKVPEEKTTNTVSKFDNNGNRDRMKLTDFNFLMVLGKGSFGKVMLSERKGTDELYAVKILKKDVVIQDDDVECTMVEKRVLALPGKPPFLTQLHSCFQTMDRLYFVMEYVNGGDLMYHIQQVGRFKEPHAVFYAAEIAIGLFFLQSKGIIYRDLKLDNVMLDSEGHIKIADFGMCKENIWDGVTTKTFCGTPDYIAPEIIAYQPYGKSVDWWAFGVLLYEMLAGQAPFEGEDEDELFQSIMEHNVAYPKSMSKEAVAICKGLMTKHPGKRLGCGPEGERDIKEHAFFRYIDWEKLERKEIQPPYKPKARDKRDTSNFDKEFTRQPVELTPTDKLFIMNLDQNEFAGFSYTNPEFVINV
Sequence of Epidermal growth factor receptor (Q01279 whole entry): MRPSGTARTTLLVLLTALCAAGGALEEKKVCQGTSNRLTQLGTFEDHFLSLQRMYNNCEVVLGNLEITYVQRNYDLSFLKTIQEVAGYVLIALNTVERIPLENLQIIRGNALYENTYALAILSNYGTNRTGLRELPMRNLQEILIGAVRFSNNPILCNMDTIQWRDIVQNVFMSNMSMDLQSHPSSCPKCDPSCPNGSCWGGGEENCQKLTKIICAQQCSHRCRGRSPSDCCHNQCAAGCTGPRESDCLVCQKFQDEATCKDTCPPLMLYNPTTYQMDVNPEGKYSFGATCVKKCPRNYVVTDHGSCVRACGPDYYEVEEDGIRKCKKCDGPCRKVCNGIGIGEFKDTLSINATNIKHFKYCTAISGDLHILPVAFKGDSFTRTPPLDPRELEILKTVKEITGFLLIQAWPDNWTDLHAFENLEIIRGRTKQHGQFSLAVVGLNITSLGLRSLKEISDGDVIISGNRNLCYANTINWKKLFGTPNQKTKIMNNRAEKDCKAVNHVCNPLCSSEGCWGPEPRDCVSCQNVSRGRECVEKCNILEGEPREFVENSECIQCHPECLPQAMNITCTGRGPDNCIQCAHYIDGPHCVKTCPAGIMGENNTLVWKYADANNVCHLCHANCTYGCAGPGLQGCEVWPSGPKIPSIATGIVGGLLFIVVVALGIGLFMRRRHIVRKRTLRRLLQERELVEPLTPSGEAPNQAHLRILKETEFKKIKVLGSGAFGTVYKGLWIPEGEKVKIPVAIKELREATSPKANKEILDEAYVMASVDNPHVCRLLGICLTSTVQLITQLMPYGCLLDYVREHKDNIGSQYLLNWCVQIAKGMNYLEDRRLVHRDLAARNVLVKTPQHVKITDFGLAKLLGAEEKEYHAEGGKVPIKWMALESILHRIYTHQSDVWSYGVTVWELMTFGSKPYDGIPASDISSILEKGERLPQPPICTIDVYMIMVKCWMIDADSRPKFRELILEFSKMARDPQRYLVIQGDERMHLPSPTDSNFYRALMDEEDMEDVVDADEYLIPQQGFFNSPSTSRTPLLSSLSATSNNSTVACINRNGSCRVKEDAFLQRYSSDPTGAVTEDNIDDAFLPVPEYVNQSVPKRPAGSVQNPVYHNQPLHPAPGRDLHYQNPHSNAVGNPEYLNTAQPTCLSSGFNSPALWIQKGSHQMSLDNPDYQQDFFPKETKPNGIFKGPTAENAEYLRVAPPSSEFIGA
Sequence of Insulin receptor (P15208 28-748 limits assumed): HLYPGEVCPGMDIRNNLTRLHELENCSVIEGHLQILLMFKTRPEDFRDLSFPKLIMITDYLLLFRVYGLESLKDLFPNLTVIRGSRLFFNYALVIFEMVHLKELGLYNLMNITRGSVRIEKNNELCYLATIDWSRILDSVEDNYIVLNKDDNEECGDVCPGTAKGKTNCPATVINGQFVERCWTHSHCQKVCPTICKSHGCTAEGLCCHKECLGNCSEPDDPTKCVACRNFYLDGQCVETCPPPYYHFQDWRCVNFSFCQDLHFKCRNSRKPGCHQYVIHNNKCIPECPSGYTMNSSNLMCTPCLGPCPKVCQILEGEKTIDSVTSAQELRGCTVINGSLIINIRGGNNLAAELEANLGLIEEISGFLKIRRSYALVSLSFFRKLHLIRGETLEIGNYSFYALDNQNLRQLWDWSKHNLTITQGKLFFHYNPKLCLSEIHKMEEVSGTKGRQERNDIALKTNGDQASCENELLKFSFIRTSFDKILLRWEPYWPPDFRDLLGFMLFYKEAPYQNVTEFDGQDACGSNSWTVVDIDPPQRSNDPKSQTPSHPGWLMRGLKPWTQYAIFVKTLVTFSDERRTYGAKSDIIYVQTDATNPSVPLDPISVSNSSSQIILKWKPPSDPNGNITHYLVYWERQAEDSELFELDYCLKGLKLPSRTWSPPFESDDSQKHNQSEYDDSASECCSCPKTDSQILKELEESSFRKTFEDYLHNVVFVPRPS
Sequence of Insulin receptor (P15208 753-1372 limits assumed): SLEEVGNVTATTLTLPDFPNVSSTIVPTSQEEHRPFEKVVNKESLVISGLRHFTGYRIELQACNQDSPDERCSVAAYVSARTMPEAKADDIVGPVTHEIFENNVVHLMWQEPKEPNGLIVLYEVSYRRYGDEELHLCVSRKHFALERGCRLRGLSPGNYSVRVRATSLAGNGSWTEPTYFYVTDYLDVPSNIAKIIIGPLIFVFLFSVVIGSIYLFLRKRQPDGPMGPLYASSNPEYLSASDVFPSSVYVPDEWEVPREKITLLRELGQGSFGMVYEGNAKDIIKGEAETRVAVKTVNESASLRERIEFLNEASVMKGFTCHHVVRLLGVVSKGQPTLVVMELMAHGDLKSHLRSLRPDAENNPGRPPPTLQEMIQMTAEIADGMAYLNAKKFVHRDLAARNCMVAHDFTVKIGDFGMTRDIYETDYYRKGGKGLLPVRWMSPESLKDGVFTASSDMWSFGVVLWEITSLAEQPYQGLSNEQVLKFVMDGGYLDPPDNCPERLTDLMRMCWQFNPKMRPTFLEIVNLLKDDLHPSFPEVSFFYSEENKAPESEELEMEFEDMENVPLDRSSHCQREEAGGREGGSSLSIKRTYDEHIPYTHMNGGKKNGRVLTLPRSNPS
Sequence of Voltage-gated inwardly rectifying potassium channel KCNH2 (Q12809 whole entry): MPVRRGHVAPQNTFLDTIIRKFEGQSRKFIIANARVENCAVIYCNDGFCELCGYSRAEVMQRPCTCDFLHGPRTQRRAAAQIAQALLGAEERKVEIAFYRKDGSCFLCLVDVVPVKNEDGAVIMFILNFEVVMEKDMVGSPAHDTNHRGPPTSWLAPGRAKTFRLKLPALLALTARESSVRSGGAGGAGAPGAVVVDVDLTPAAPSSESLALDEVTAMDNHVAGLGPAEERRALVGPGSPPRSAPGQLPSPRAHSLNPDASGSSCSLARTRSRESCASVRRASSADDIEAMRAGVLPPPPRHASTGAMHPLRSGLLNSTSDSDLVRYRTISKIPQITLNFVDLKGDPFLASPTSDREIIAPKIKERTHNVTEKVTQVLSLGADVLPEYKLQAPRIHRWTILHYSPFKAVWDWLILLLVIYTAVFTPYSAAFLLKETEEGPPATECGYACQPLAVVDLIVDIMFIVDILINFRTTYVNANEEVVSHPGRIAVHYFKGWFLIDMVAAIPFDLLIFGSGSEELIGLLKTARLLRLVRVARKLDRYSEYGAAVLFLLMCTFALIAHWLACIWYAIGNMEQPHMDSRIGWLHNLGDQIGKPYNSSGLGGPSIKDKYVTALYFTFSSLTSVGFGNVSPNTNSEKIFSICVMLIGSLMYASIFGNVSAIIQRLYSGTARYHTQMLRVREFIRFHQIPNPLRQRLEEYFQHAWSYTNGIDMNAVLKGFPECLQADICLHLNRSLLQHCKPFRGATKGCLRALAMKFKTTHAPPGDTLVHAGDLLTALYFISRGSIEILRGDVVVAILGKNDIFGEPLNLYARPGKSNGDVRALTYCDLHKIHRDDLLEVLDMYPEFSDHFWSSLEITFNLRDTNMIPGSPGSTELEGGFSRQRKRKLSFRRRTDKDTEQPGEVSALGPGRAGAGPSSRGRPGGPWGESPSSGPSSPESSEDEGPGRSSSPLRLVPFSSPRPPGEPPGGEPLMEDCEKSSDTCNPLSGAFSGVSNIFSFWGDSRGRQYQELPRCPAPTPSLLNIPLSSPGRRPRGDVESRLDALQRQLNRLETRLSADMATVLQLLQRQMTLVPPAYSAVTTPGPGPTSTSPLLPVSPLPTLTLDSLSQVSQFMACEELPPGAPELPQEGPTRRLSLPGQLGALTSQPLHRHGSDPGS
Sequence of Cyclin-dependent kinase 1 (P11440 whole entry): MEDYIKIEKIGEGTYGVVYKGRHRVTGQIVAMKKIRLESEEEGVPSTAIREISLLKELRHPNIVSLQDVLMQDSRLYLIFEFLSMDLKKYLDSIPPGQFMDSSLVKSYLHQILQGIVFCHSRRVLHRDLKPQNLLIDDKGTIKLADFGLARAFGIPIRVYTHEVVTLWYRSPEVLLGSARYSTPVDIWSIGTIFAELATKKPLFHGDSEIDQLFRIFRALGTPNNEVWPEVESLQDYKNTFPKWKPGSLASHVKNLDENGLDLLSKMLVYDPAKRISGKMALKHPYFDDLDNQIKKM

Row | IC50 [1] [nM] | IC50 [2] [µM] | IC50 [3] [µM] | IC50 [4] [µM] | IC50 [5] [nM] | IC50 [6] [nM] | IC50 (Casein kinase 2) [µM] | IC50 [7] [nM] | IC50 (Insulin receptor) [µM] | IC50 [9] [µM] | IC50 [10] [nM] | IC50 [11] [µM] | IC50 [12] [nM] | IC50 [13] [µM] | IC50 [14] [nM] | IC50 [15] [µM] | IC50 [16] [nM] | inhibition [18] [%] | SMILES | IC50 [8] [µM] | Ki [17] [nM]
1 | 1300 | > 10 | > 10 | 5.9 | 33 | 490 | > 10 | 24 | > 10 | 6.2 | – | > 10 | 110 | > 10 | 330 | 6.1 | – | – | CN(C)CCCn1nc(C2=C(c3cn(-c4ccc5ccccc5c4)c4ccccc34)C(=O)NC2=O)c2ccccc21 | 1 | –
2 | – | – | – | – | 120 | – | – | 170 | – | – | – | – | – | – | – | – | – | – | O=C1NC(=O)C(c2nn(CCCN3CCCC3)c3ccccc23)=C1c1cn(-c2ccc3ccccc3c2)c2ccccc12 | – | 11
3 | – | – | – | – | 62 | – | – | – | – | – | 320 | – | – | – | – | – | 92 | – | CN1CCN(CCCn2nc(C3=C(c4cn(-c5ccc6ccccc6c5)c5ccccc45)C(=O)NC3=O)c3ccccc32)CC1 | – | 290
4 | 1600 | > 10 | > 10 | 5.9 | 7 | 31 | > 10 | 20 | > 10 | 5.7 | – | > 10 | – | > 10 | 140 | > 10 | – | – | CN(C)CCCn1nc(C2=C(c3cn(-c4cnc5ccccc5c4)c4ccccc34)C(=O)NC2=O)c2ccccc21 | > 10 | –
5 | 1900 | > 10 | > 10 | > 10 | 87 | 2200 | > 10 | 600 | > 10 | > 10 | 1200 | > 10 | 3400 | > 10 | 4200 | > 10 | – | – | CN(C)CCCn1nc(C2=C(c3cn(-c4cccc5ccccc45)c4ccccc34)C(=O)NC2=O)c2ccccc21 | 6.9 | –
6 | – | – | – | – | 190 | – | – | 72 | – | – | – | – | – | – | – | – | – | – | O=C1NC(=O)C(c2nn(CCCN3CCOCC3)c3ccccc23)=C1c1cn(-c2ccc3ccccc3c2)c2ccccc12 | – | 850

The next lines start with the molecule.

Row | SMILES | IC50 [1] [nM] | IC50 [2] [µM] | IC50 [3] [µM] | IC50 [4] [µM] | IC50 [5] [nM] | IC50 [6] [nM] | IC50 (Casein kinase 2) [µM] | IC50 [7] [nM] | IC50 (Insulin receptor) [µM] | IC50 [9] [µM] | IC50 [10] [nM] | IC50 [11] [µM] | IC50 [12] [nM] | IC50 [13] [µM] | IC50 [14] [nM] | IC50 [15] [µM] | IC50 [16] [nM] | inhibition [18] [%] | IC50 [8] [µM] | Ki [17] [nM]
7 | CN(C)CCCn1nc(C2=C(c3cn(-c4cccnc4)c4ccccc34)C(=O)NC2=O)c2ccccc21 | 310 | > 10 | > 10 | 5.2 | 19 | 250 | > 10 | 82 | > 10 | 4.4 | 120 | > 10 | 210 | > 10 | 330 | 3.8 | – | – | 3.7 | –
8 | CN(C)CCCn1nc(C2=C(c3cn(-c4ccccc4)c4ccccc34)C(=O)NC2=O)c2ccccc21 | – | – | – | – | 46 | – | – | – | – | – | 150 | – | 370 | – | – | – | 13 | – | – | –
9 | CN(C)CCCn1nc(C2=C(c3cn(-c4cncc5ccccc45)c4ccccc34)C(=O)NC2=O)c2ccccc21 | – | – | – | – | 92 | – | – | 86 | – | – | – | – | 250 | – | – | – | – | – | – | –
10 | CN(C)CCCn1nc(C2=C(c3cn(-c4csc5ccccc45)c4ccccc34)C(=O)NC2=O)c2ccccc21 | > 10000 | > 10 | > 10 | > 10 | 86 | 1500 | > 10 | 630 | > 10 | > 10 | – | > 10 | – | > 10 | 3100 | 5.6 | – | – | > 10 | –
11 | CN[C@@H]1C[C@H]2O[C@@](C)([C@@H]1OC)n1c3ccccc3c3c4c(c5c6ccccc6n2c5c31)C(=O)NC4 [STAUROSPORINE] | 8 | 0.004 | – | 0.002 | – | – | > 10 | – | – | – | – | 1.4 | – | – | – | 0.006 | – | – | 0.014 | –
12 | CN(C)CCCn1nc(C2=C(c3cn(-c4cccs4)c4ccccc34)C(=O)NC2=O)c2ccccc21 | – | 6.2 | > 10 | 2.2 | 15 | 86 | > 10 | 75 | > 10 | – | 220 | > 10 | 280 | > 10 | 140 | 7 | 10 | 57 | 5 | –
13 | O=C1NC(=O)C(c2cn(-c3cccnc3)c3ccccc23)=C1c1[nH]nc2ccccc12 | – | – | – | – | 460 | – | – | – | – | – | 1000 | – | – | – | – | – | 220 | – | – | –
